Experimental data as given in patent publication US20240415967A1, “DEGRADABLE NEAR-INFRARED PHOTOSENSITIZERS, PREPARATION METHODS, APPLICATIONS THEREOF” (BEIJING INSTITUTE OF COLLABORATIVE INNOVATION, priority 2021, published 2024).

How the values were obtained:
[1] = Detection of superoxide anion free radicals with dihydroethidium (DHE) probe under irradiation; assay type: physicochemical; conditions: water solution 10 μM, air atmosphere, 700 nm LED 1.25 mW/cm^2
Protocol: Under an air atmosphere, dihydroethidium (DHE) was added to a water solution (10 μM) of the target product prepared in Embodiment 3 as a probe of superoxide anion free radicals, and an irradiation condition was a 700 nm light-emitting diode lamp of 1.25 mW/cm^2, a fluorescence of ethidium oxide generated by an oxidation of the DHE by the superoxide radicals was detected, and a fluorescence intensity enhanced with the increase of an irradiation time.

[2] = Monitoring of self-degradation / photodegradation of the photosensitizer in solution (UV-vis, emission, HPLC); assay type: physicochemical
Protocol: In the test of Embodiment 7, an irradiation condition was the 700 nm light-emitting diode lamp of 1.25 mW/cm^2 for 0 min-2 min, the characteristic absorption of 1,3-diphenylisobenzofuran (DPBF) at the characteristic absorption peak of 416 nm was gradually weakened.
The target product obtained in Embodiment 3 was placed under a light-emitting diode lamp for irradiation, and an irradiation condition was 700 nm of 10 mW/cm^2, and the UV-visible absorption spectrum and an emission spectrum of the target product were recorded during irradiation.
As a control, the reference compound prepared in Embodiment 4 was placed under a light-emitting diode lamp for irradiation, the irradiation condition was 640 nm, 10 mW/cm^2, and the UV-visible absorption spectrum and the emission spectrum of the reference compound were recorded during irradiation.

[3] = test system: HeLa human cervical cancer cells; experiment: Medicine phototherapy at an animal level (subcutaneous tumor model); assay type: in vivo, BALB/C nude mice; conditions: 0.2 mg/kg in situ injection, 2 weeks
Protocol: All animal experiments in the in vivo experiments were performed in strict compliance with the Chinese regulations for animal experiments using BALB/C nude mice, 5 weeks of age of the mouse, male, and a range of 16 g-25 g of body weight. Each mouse was subcutaneously inoculated with 100 uL of HeLa human cervical cancer cells in the right hind limb (5×10^6) to construct the tumor model, and the experiments were performed two weeks later.
Mice were randomly grouped by number, and the experiment was divided into an irradiation control group (including irradiation), a dark control group (including a target product; and a degradation product), and an experimental group (including target product+irradiation; and degradation product+irradiation), with six mice in each group. The dark control and experimental groups were administered by in situ injection, respectively: a dose of 0.2 mg/kg was administered, and 20 μL (0.2 mg/ml) of PBS solution of the target product or degradation product was injected in situ. After 30 min, the irradiation control and experimental groups were irradiated, and an irradiation condition was a 700 nm light-emitting diode lamp of 100 mW/cm^2, and 10 min of irradiation per mouse. The six mice were not given a light-avoidance process after therapy and were put into rearing cages to continue to feed, and every two days, a tumor volume was measured by vernier calipers and the body weight was weighed. The mice were therapized for 2 weeks.

[4] = test system: HeLa human cervical cancer cells; experiment: Detection of cellular phototoxicity (CCK-8 cell viability); assay type: cell-based; conditions: 700 nm LED 2.5 mW/cm^2 for 10 min
Protocol: The cells used in the experiment were HeLa human cervical cancer cells. Cell culture was performed in a DMEM complete culture medium (purchased from Genye, 500 mL) supplemented with 10% inactivated fetal bovine serum (purchased from Shuohua, 500 mL) with 1% penicillin-streptomycin (purchased from Corning, 100 mL) at a temperature of 37° C. and an atmosphere of 5% carbon dioxide.
Sub-cultured Hela cells were digested by trypsin and dispersed in the culture medium at an appropriate concentration. […]
100 μL of PBS buffer was added to each well, and an irradiation condition was a 700 nm light-emitting diode lamp of 2.5 mW/cm^2 for 10 min. […] During this process, a monosodium salt of 2-(2-methoxy-4-nitrophenyl)-3-(4-nitrophenyl)-5-(2,4-disulfonate phenyl)-2H-tetrazolium (WST-8) in the CCK-8 reagent with an electron coupling reagent may be reduced to a water-soluble yellow formazan product by living cells, which causes an absorbance of the solution at 450 nm to vary, and values of variation may be proportional to a count of living cells. The variation of the absorbance at 450 nm of each well was measured using an enzyme labeling apparatus, and a cell viability at each incubation concentration was calculated according to a formula: […]

[5] = UV-visible absorption and emission spectrum scanning (photophysical property); assay type: physicochemical; conditions: light excitation, FIG. 8
Protocol: A UV-visible absorption spectrum scanning and an emission spectrum scanning were performed on the target product prepared in Embodiment 3, and the scanning results are shown in FIGS. 7 and 8. […] Therefore, the target product may include a deep tissue penetration depth in photodynamic therapy or in vivo fluorescence imaging.

[6] = Detection of singlet oxygen with 1,3-diphenylisobenzofuran (DPBF) capture spectrophotometry; assay type: physicochemical; conditions: DPBF absorbance at 416 nm, 700 nm LED 1.25 mW/cm^2
Source text: A phosphorescence emission of singlet oxygen was easily quenched by water molecules, and the singlet oxygen generated by the target product was detected by using chemical capture spectrophotometry. 1,3-diphenylisobenzofuran (DPBF) was one of the most commonly used singlet oxygen capture agents, and 1,3-diphenylisobenzofuran reacted with the singlet oxygen rapidly to generate a colorless substance, and a content of the singlet oxygen may be reflected by detecting a variation of an absorbance of the 1,3-diphenylisobenzofuran (DPBF) at a characteristic absorption peak (416 nm) using the UV-visible absorption spectrum. An irradiation condition was a 700 nm light-emitting diode (LED) lamp of 1.25 mW/cm^2, a characteristic absorption of the 1,3-diphenylisobenzofuran (DPBF) at the characteristic absorption peak of 416 nm was gradually weakened.

[7] = Photosensitization side effects of a photosensitizer at an animal level; assay type: in vivo, BALB/C nude mice; conditions: 0.2 mg/kg subcutaneous, site irradiated 10 min (700 nm target product, 640 nm reference compound, 100 mW/cm^2), then simulated natural light 10 mW/cm^2 for 1 hour
Protocol: All animal experiments in the in vivo experiments were performed in strict compliance with the Chinese regulations for animal experiments, using BALB/C nude mice, 5 weeks of age of the mouse, male, and a range of 16 g-25 g of body weight.
The mice were randomly grouped by number, and the experiment was divided into a target product group, a reference compound group, and an irradiation control group, with 3 mice in each group. Each of the mice was injected subcutaneously into an abdomen with 20 μL (0.2 mg/mL) of the target product, reference compound solution, or PBS solution, and an administered dose was 0.2 mg/kg. After the injection, a site of administration was irradiated, an irradiation condition of the target product was a 700 nm light-emitting diode lamp, and an irradiation condition of the reference compound was a 640 nm light-emitting diode lamp of 100 mW/cm^2, each of the mice was irradiated for 10 min, and no processing was performed in the irradiation control group. The state of the mouse was observed and a body temperature of the mouse was recorded with a thermal imager. Further, the three groups of mice were exposed to a simulated natural light of 10 mW/cm^2 and irradiated for 1 hour.

## C[N+](C)(C)c1c(F)c(F)c(C2=C3C(=O)OC4=[N+]3[Zn]35[n]6c2ccc6-c2c(oc6c(F)c([N+](C)(C)C)c(F)c(F)c26)[N+]3=c2oc3c(F)c([N+](C)(C)C)c(F)c(F)c3c2=c2ccc([n]25)=C4c2c(F)c(F)c([N+](C)(C)C)c(F)c2F)c(F)c1F (stereo not drawn) [target product]
[1]
  generation of superoxide anion free radicals: ability to generate the superoxide anion free radicals under irradiation
[2]; 700 nm LED 2.5 mW/cm^2 for 0 min-10 min, FIG. 15
  photodegradation process monitored by HPLC: able to self-degrade and gradually be converted into the degradation product
[2]; 700 nm LED 10 mW/cm^2, FIGS. 29-30
  photodegradation in solution (absorption and emission spectra during irradiation): degraded under irradiation
[2]; 700 nm LED 10 mW/cm^2 for 2 min-4 min, FIG. 13
  degradation under irradiation (characteristic absorption at 440 nm and 710 nm): degraded under irradiation
[2]; FIG. 14
  photodegradation rate as a function of irradiation intensity: accelerated with the increase in irradiation intensity
[3]; 700 nm LED 100 mW/cm^2 10 min
  body weight, with irradiation: no significant weight loss
[3]; 700 nm LED 100 mW/cm^2 10 min single irradiation
  tumor growth (tumor volume), with irradiation: effectively inhibited a growth of a subcutaneous tumor
[3]; no irradiation
  body weight, dark control: no significant weight loss
  tumor growth (tumor volume), dark control: grows rapidly
[4]; 0 μM-4 μM, FIGS. 16-17
  cellular phototoxicity: relatively strong cellular phototoxicity under irradiation
[4]; Homo sapiens, 24 h incubation, CCK-8, read-out: half-lethal concentration IC50
  IC50: 1000 nM
[5]
  fluorescence spectrum region: in the near-infrared region
[6]
  generation of singlet oxygen: ability to produce singlet oxygen under irradiation
[7]
  body temperature after natural light (thermal imager): no significant variation
  reactions / photosensitization side effects after natural light: did not exhibit abnormal reactions
